Measurements reported in patent US9048628B2, “Solid-state dye laser medium and process for production thereof” (KYUSHU UNIVERSITY, NATIONAL UNIVERSITY CORPORATION, priority 2011, dated 2015).

Experiments:
[1] = Maximum concentration soluble in polydimethylsiloxane (PDMS) when silicone oil was used; type: physicochemical; conditions: silicone oil used as in Example 2
Description: A DFB laser was produced in the same manner as in Example 1, except that a silicone oil (KF-1065, produced by Shin-Etsu Chemical Co., Ltd.) was used instead of toluene, and that the step of removing toluene was not performed.
(§1) Using the dyes indicated below, maximum concentrations at which they were soluble in polydimethylsiloxane (PDMS) were investigated in the same manners as in Examples 1 and 2.

[2] = Maximum concentration soluble in polydimethylsiloxane (PDMS) when toluene was used; type: physicochemical
Description: Pyrromethene 597 (PM597, produced by Exciton) as a dye was dissolved in toluene to prepare a solution of a saturated concentration (100 to 130 mmol/L). This dye solution was mixed at a mixing ratio of […] (volume ratio) with a dimethylsiloxane oligomer (SIM-360, produced by Shin-Etsu Chemical Co., Ltd.) being a polydimethylsiloxane precursor, and the mixture was stirred for 2 days for thorough uniform dispersing. Then, the dispersion was further heated at 72° C. to evaporate toluene, thus adjusting the system to a final dye concentration of 3 mmol/L.
as §1

[3] = dye unchanged, without silicone oil

Compound | Behavior of dissolution in PDMS when silicone oil was used: State [1] | Highest concentration dissolving in dimethylsiloxane [2, 3] | Behavior of dissolution in PDMS when toluene was used: State ([2]; toluene used as in Example 1) | Dissolution in dimethylsiloxane (in words) [2, 3]
CC1=C(S(=O)(=O)[O-])C(C)=[N+]2C1=C(C)c1c(C)c(S(=O)(=O)[O-])c(C)n1[B-]2(F)F.[Na+].[Na+] [PM556] | dispersed |  |  | 
CCC1=C(C)C2=C(C)c3c(C)c(CC)c(C)n3[B-](F)(F)[N+]2=C1C [PM567] | dissolved |  |  | 
CCCCC1=C(C)C2=C(C)c3c(C)c(CCCC)c(C)n3[B-](F)(F)[N+]2=C1C [PM580] | lumpy→ |  |  | 
CC1=C(C(C)(C)C)C(C)=[N+]2C1=C(C)c1c(C)c(C(C)(C)C)c(C)n1[B-]2(F)F [PM597] | dissolved | 3 mmol/L | dissolved | 
CCC1=C(C)C2=C(COC(C)=O)c3c(C)c(CC)c(C)n3[B-](F)(F)[N+]2=C1C [PM605] | dissolved |  |  | 
CC1=C(C)C(C)=[N+]2C1=C(C#N)c1c(C)c(C)c(C)n1[B-]2(F)F [PM650] | dissolved |  |  | poses difficulty in dissolving to a lower limit concentration at which laser oscillation becomes possible
CCN=c1cc2oc3cc(NCC)c(C)cc3c(-c3ccccc3C(=O)OCC)c-2cc1C.Cl [Rh6G] | lumpy→ |  |  | 
